According to patent US20250231157A1, “METHOD FOR DETERMINING THE PARTITION OF NAPHTHENIC ACIDS FROM A PRODUCTION WATER MIMICKING SYSTEM AND MIMICKING SYSTEM” (PETRÓLEO BRASILEIRO S.A. – PETROBRAS, priority 2023, published 2025):

Experiments:
[1] = Partition equilibrium with addition of calcium and strontium salts to the aqueous phase; assay type: physicochemical; conditions: for Effect of strontium ions on migration to the aqueous phase: strontium 400-2600 mg·L^−1
Protocol: The addition of salts to the reaction system is of fundamental importance when one intends to mimic field conditions. In this sense, in addition to continuing the study of the salinity effect (Example 4), the insertion of salts containing Ca^2+ and Sr^2+ ions, known to be present in seawater, was tested. To this end, the projects were based on the literature (Zheng, J. et al. Offshore produced water management: A review of current practice and challenges in harsh/Arctic environments. Mar. Pol. Bul. 2016, 104, 7-19) and four concentrations of each of the two ions were evaluated (400.0, 1200.0, 2600.0 and 9000.0 mg·L^−1), maintaining salinity at 3.5% (m·v^−1).
In short, the experimental results were generated in triplicate, using 99% NaCl to add salinity to the aqueous fraction and PA calcium chloride and PA strontium chloride to add calcium and strontium, respectively.
The addition of calcium and strontium to the reaction system, in the form of salts, aims at mimicking the real scenario in which both species are present (regardless of the salinity of the medium), especially in the well condition. This study aimed at understanding the effect (on the migration of acids to the organic phase) of this ion in the system also at concentrations higher than 10 mM. Finally, the experiments (in triplicate) with divalent strontium ions followed the same rationale.

[2] = Partition equilibrium in the presence of surfactants (TBA, CTA, TMA); assay type: physicochemical
Description: The presence of chemical compounds usually added in the chain of unit operations of oil extraction and production, such as demulsifiers and surfactants, can affect the partition equilibrium of species in this water/oil system. In order to understand the extent of this effect, as well as discern the relevance of the chemical structure on this effect, the following items were chosen: • Dissolvan 961 (Clariant), composed of oil hydrocarbons (CAS 918-811-1) and ethanol (CAS 64-17-5); • Dissolvan 974 (Clariant), composed of EO-PO block polymer poly adducts and Bisphenol-A-diglycidyl ether (CAS 68123-18-2) and ethanol (CAS 64-17-5); • Tetrabutylammonium chloride (CAS 1112-67-0), 97% purity; • Cetyltrimethylammonium chloride (CAS 112-02-7), 25% in water; and • Trimethylammonium chloride (CAS 593-81-7), 98% purity.
For this study, the experiments (in triplicate) used between 100.0 and 1000.0 mg·L^−1 of each compound, comparing the results with control tests (absence of the component), all with constant salinity at 3.5% (m·v^−1). Finally, neutralization titration with a standardized NaOH titrant solution was used to determine the effect on the partition equilibrium for four acidic species (the same as in the other examples, except for dicyclohexylacetic acid).
Considering the study with surfactants, the (individual) addition of three species to the control system was evaluated (tetrabutylammonium chloride (TBA), tetramethylammonium chloride (TMA) and cetyltrimethylammonium chloride (CTA)). For this purpose, the surfactants have distinct chemical structures, namely the size of the side chain, and their eventual effect on the partition equilibrium of the acidic species was evaluated.

[3] = Partition equilibrium under the influence of salinity (NaCl), glass reactor, neutralization titration; assay type: physicochemical
Protocol: The variation in salinity (and its effect on acidic species) is due to the large variation in salinity found between the portions of bottom-hole water, middle-well water and surface water. Thus, systems with salinity (i.e., NaCl) between 3.5 and 30% (m·v^−1) were tested in a glass reactor, and neutralization titration was performed (in triplicate analysis), as previously described. Furthermore, the experimental results were generated in triplicate, using 99% NaCl (Sigma-Aldrich) with five acidic species.

[4] = Partition equilibrium in the presence of demulsifiers (Dissolvan 961, Dissolvan 974)
[5] = Partition equilibrium under the influence of salinity (NaCl), glass reactor, neutralization titration; assay type: physicochemical; conditions: Salinity 0 (%, m · m^−1) NaCl
[6] = Control experiments: availability of the species in alkaline aqueous medium without using the reactor; assay type: physicochemical; conditions: acid solubilized directly in aqueous phase, no reactor
Protocol: Previously, the back titration procedure was internalized and optimized (Example 1), ensuring that the reproducibility of the measurements was adequate (standard deviation values below 10%, for example) and that the recoveries were close to what was expected based on the purity of the reagents (i.e., close to or above 90%). […] Control experiments were performed (measuring the availability of the species in an aqueous medium, without using the reactor) by solubilizing the organic acid directly in the aqueous phase and titrating a 10.0 mL aliquot; the same way, experiments were performed in the reactor based on the standardization of heptol and salinity already discussed (3.5%).

[7] = Partition equilibrium in reactor pressurized with CO2, in presence and absence of alkalinity (NaHCO3, Na2CO3), back titration
Protocol: In the initial tests, 100 mL of heptol and 300 mL of water (with or without salinity) were used, with the addition of acidic species in the organic phase, in order to verify migration to the aqueous phase. As a rule, the system was kept under agitation at 500 rpm for 8 min, followed by rest for 10 min and, finally, collection of 50.0 mL aliquots of the aqueous phase for titrimetric analysis.
A 316 stainless steel alloy reactor (Parr®) (capacity for 600 mL and operational up to 20 MPa pressure) was used. For this purpose, a temperature range between 25° C. and 80° C. and pressure between 0.1 MPa and 1.0 MPa were used, and the reactor was pressurized with CO2. Thus, the results were compared (in terms of migration of the acidic species (%, mol) by means of back titrations) and the influence of pressure and temperature on the partition was estimated, as well as possible synergistic effects with the sources of alkalinity added to the aqueous phase.

[8] = Calcium 400 mg · L^−1, salinity 3.5%
[9] = Calcium 1200 mg · L^−1, salinity 3.5%
[10] = Calcium 2600 mg · L^−1, salinity 3.5%
[11] = Strontium 400 mg · L^−1, salinity 3.5%
[12] = Strontium 1200 mg · L^−1, salinity 3.5%
[13] = Strontium 2600 mg · L^−1, salinity 3.5%
[14] = Salinity 3.5 (%, m · m^−1) NaCl
[15] = Salinity 18.0 (%, m · m^−1) NaCl
[16] = Salinity 30.0 (%, m · m^−1) NaCl

O=C(O)CCCCc1ccccc1 [5-Phenylpentanoic Acid, 5-phenylpentanoic acid]
Migration ([1]; Absence of ions, salinity 3.5%): 10.4 %, mol | Migration [1, 8]: 5.5 %, mol | Migration [1, 9]: 4.7 %, mol | Migration [1, 10]: 3.4 %, mol | Migration [1, 11]: 4.4 %, mol | Migration [1, 12]: 5.3 %, mol | Migration [1, 13]: 4.8 %, mol | Effect of calcium ion on migration to the aqueous phase ([1]; calcium up to the maximum study concentrations): no variation in migration | Effect of strontium ions on migration to the aqueous phase [1]: decreased migration | Migration ([2]; Absence of surfactant, salinity 3.5%): 10.4 %, mol | Migration ([2]; CTA100 (cetyltrimethylammonium chloride 100 mg · L^−1)): 11.5 %, mol | Migration ([2]; CTA1000 (1000 mg · L^−1)): 52.6 %, mol | Migration ([2]; TBA100 (tetrabutylammonium chloride 100 mg · L^−1)): 22.0 %, mol | Migration ([2]; TBA1000 (1000 mg · L^−1)): 21.6 %, mol | Migration ([2]; TMA100 (trimethylammonium chloride 100 mg · L^−1)): 9.4 %, mol | Migration ([2]; TMA1000 (1000 mg · L^−1)): 9.1 %, mol | Increase in migration to the aqueous phase with CTA ([2]; surfactant CTA, 1000 mg·L^−1): ~500% | Increase in the tendency to migrate to the aqueous phase with TBA ([2]; surfactant TBA, noticeable from 100 mg·L^−1): 100% | Effect of TMA on partition equilibrium ([2]; surfactant TMA): no observable effect | Salting out effect (reduction in the number of moles contained in the aqueous phase) ([3]; 30% (m·v^−1) NaCl versus tests without salinity): ~38% | Migration [3, 14]: 13.2 %, mol | Migration [3, 15]: 15.4 %, mol | Migration [3, 16]: 15.4 %, mol | Increase in migration to the aqueous phase with demulsifier ([4]; 50 mg·L^−1 of D961): approximately 100% | Migration ([4]; Absence of ions (no demulsifier), salinity 3.5%): 10.4 %, mol | Migration ([4]; D961 50 mg · L^−1): 21.0 %, mol | Migration ([4]; D961 100 mg · L^−1): 21.0 %, mol | Migration ([4]; D961 1000 mg · L^−1): 23.0 %, mol | Migration ([4]; D974 50 mg · L^−1): 18.0 %, mol | Migration ([4]; D974 100 mg · L^−1): 16.0 %, mol | Migration ([4]; D974 1000 mg · L^−1): 14.6 %, mol | Migration [5]: 24.4 %, mol | Availability (reference value) ([6]; Na2CO3 + NaHCO3 (3.48×10^−5 mol)): 100.0 % mol | Availability (reference value) ([6]; NaHCO3 (3.45×10^−5 mol)): 100.0 % mol | Migration ([7]; 25° C. and 1.0 MPa CO2, no alkalinity): did not generate quantifiable results | Migration ([7]; Na2CO3 + NaHCO3, 25° C. and 0.1 MPa): 100.0 % mol | Migration ([7]; Na2CO3 + NaHCO3, 25° C. and 1.0 MPa CO2): 100.0 % mol | Migration ([7]; Na2CO3 + NaHCO3, 80° C. and 1.0 MPa CO2): 100.0 % mol | Migration ([7]; NaHCO3, 25° C. and 0.1 MPa): 100.0 % mol | Migration ([7]; NaHCO3, 25° C. and 1.0 MPa CO2): 100.0 % mol | Migration ([7]; NaHCO3, 80° C. and 1.0 MPa CO2): 100.0 % mol | Migration trend in the presence of alkalinity individually and together with pressure/temperature ([7]; NaHCO3 or Na2CO3 + NaHCO3, 0.1 or 1.0 MPa, 25 or 80 °C): 100% | Migration ([7]; Reference (heptol + 3.5% NaCl), no alkalinity): 10.3 % mol

O=C(O)C(C1CCCCC1)C1CCCCC1 [Dicyclohexylacetic Acid, dicyclohexylacetic acid]
Migration ([1]; Absence of ions, salinity 3.5%): 22.1 %, mol | Migration [1, 8]: 20.7 %, mol | Migration [1, 9]: 19.6 %, mol | Migration [1, 10]: 31.8 %, mol | Migration [1, 11]: 15.8 %, mol | Migration [1, 12]: 20.0 %, mol | Migration [1, 13]: 21.5 %, mol | Migration ([1]; before addition of calcium): 22 % (m·v^−1) | Effect of strontium ions on migration to the aqueous phase [1]: no effect | Migration to aqueous medium, approximate level over the salinity study ([3]; 0-30% NaCl): around 20% | Effect of the addition of salinity on migration ([3]; 3.5-30% NaCl, 95% reliability): no significant effect | Migration [3, 14]: 18.1 %, mol | Migration [3, 15]: 19.9 %, mol | Migration [3, 16]: 21.5 %, mol | Migration [5]: 22.0 %, mol
